Cc1ccc(S(=O)(=O)NC(CCC(N)=O)C(=O)O)cc1C (stereo unspecified)
melting point: 171 to 173 °C

CC(C)(C)OC(=O)NC1CC(O)C1 (stereo unspecified)
melting point: 108 to 110 °C

O=C(c1ccccn1)c1cc2ccccc2o1
melting point: 96 to 98 °C

CC1=C(C(=O)O)Cc2ccccc2O1
melting point: 234 to 236 °C

CN1CCN(S(=O)(=O)c2ccc3c(c2)CCN3)CC1
melting point: 176 to 178 °C

Nc1nc(-c2cccnc2)no1
melting point: 266 to 268 °C

N#Cc1cccc(OCc2cccc(C(=O)O)c2)c1
melting point: 179 to 181 °C

O=C(O)C1C2CCCCC21 (stereo unspecified)
melting point: 86 to 88 °C

O=C(O)c1ccc(Oc2ccccc2Br)nc1
melting point: 182 to 184 °C

COc1ccccc1C1(C)NC(=O)N(CC(=O)O)C1=O (stereo unspecified)
melting point: 179 to 181 °C

O=C(O)c1ccccc1OCc1ccc(F)cc1
melting point: 80 to 84 °C

NC(COc1ccc(Cl)cc1Cl)=NO
melting point: 141 to 144 °C

Cc1ccc(C(=O)c2ccccc2Cl)cc1
melting point: 90 to 92 °C

NC(=NO)c1ccc(O)cc1Cl
melting point: 153 to 155 °C

CCCCc1ccc(NS(=O)(=O)c2cccc(C(=O)O)c2)cc1
melting point: 206 to 208 °C

O=C(O)c1sc(-c2ccccc2)cc1OCC(=O)N1CCCCC1
melting point: 164 to 166 °C

O=C(O)c1ccc(-c2cccc(OC(F)(F)F)c2)s1
melting point: 149 to 151 °C

Cc1nc2ccccc2n1N
melting point: 145 to 147 °C

CCOC(=O)CSc1nnc(-c2ccco2)o1
melting point: 59 to 61 °C

CC(=O)c1cc([N+](=O)[O-])ccc1N
melting point: 144 to 146 °C

Cc1cc(C(=O)O)ccc1N1C(=O)C=CC1=O
melting point: 203 to 205 °C

CC(C)CC1CC(C(=O)O)CC(=O)N1 (stereo unspecified)
melting point: 188 to 190 °C

C/C(=N\O)c1ccc(-c2cccc(Br)c2)s1
melting point: 168 to 170 °C

O=S(=O)(c1ccc2c(c1)CCCC2)N1CCNCC1
melting point: 110 to 112 °C

CC(C)c1nonc1N
melting point: 43 to 45 °C

Clc1ccc2cccnc2c1CBr
melting point: 119 to 121 °C

CC1(C)SC[C@H](C(=O)O)NC1=O
melting point: 205 to 207 °C

CC(C)c1cnc(S)n1C(C)C
melting point: 177 to 179 °C

Nc1cc(Br)ccc1O
melting point: 127 to 129 °C

O=C1Nc2ccccc2N2CCC12 (stereo unspecified)
melting point: 169 to 171 °C

O=Cc1cscn1
melting point: 61 to 63 °C

O=C(O)c1nnn(-c2cccc(F)c2)c1C(F)(F)F
melting point: 130 to 132 °C

N#CCOc1cccc(CC(=O)O)c1
melting point: 79 to 81 °C

Cn1cc(C(=O)O)c(=O)n(C)c1=O
melting point: 189 to 191 °C

Cc1csc(C(O)(CC(=O)O)C(F)(F)F)n1 (stereo unspecified)
melting point: 109 to 111 °C

O=C(O)c1ccc(-n2cccc2)c(F)c1
melting point: 252 to 254 °C

Cc1sc(N=CN(C)C)c(C#N)c1C
melting point: 117 to 119 °C

NC(=O)C1CCCN1C(=O)NC(=O)CCl (stereo unspecified)
melting point: 126 to 128 °C

O=Cc1cc(-c2cccs2)cs1
melting point: 107 to 109 °C

COc1ccc(CCC(=O)NN)cc1
melting point: 129 to 131 °C

ON=C1CCC1
melting point: 82 to 84 °C

Oc1ccccc1OCc1cscn1
melting point: 120 to 122 °C

O=C(O)COCCN1CCN(C(c2ccccc2)c2ccc(Cl)cc2)CC1 (stereo unspecified)
melting point: 224 to 226 °C

COc1cc(C(=O)O)cc(Cl)c1OC
melting point: 191 to 193 °C

CC(C)(C)OC(=O)N1CCC(Oc2ccccc2)(C(=O)O)CC1
melting point: 103 to 105 °C

CNC(=O)c1cc(Cl)ccc1[N+](=O)[O-]
melting point: 137 to 139 °C

CC(Sc1ccnc2cc(Cl)ccc12)C(=O)O (stereo unspecified)
melting point: 201 to 203 °C

Nc1nc(Cc2ccccc2)cs1
melting point: 89 to 91 °C

CNS(=O)(=O)c1ccccc1N1CCC(N)CC1
melting point: 119 to 121 °C

CSCc1nc(N)ccc1Cl
melting point: 70 to 72 °C

CC1CCN(C(=O)c2ccc(Cl)nc2)CC1
melting point: 69 to 71 °C

NC(CSCc1cccc2cccnc12)C(=O)O (stereo unspecified)
melting point: 171 to 173 °C

Nc1[nH]ncc1-c1ccccc1Br
melting point: 129 to 131 °C

CC1CC(=O)c2cccc(Br)c21 (stereo unspecified)
melting point: 45 to 47 °C

NC(=O)c1ccc(-c2csc(N)n2)cc1
melting point: 250 to 252 °C

C#CCn1nc(C)c(C)c1C
melting point: 74 to 76 °C

CC(=O)c1ccc(S(=O)(=O)N(C)C)cc1
melting point: 99 to 101 °C

CN(C)c1ncnc(Cl)c1CCl
melting point: 64 to 66 °C

Nc1c(I)cccc1C(=O)O
melting point: 172 to 174 °C

CNC(=O)NCC(=O)O
melting point: 138 to 140 °C

COc1ccc(C(C)=O)cc1CS(=O)CC(=O)O (stereo unspecified)
melting point: 93 to 95 °C

O=C(O)c1ccc(F)c(S(=O)(=O)Cl)c1
melting point: 138 to 140 °C

C#Cc1nc2ccccc2s1
melting point: 39 to 41 °C

Nc1nc(CCl)nc2sc3c(c12)CCCC3
melting point: 174 to 176 °C

NC(=O)c1ccc2c(N)ncnc2c1
melting point: 359 to 361 °C

CC(=O)NC1(C(N)=NO)CCN(C)CC1
melting point: 202 to 204 °C

Brc1ccc2[nH]c3c(c2c1)CNCC3
melting point: 216 to 218 °C

CCc1cc(=O)[nH]c(-c2ccc(Cl)nc2)n1
melting point: 208 to 210 °C

CC(C(=O)O)N1CCSCC1 (stereo unspecified)
melting point: 199 to 201 °C

CCCOc1ccc2ccccc2c1C=O
melting point: 65 to 68 °C

Cc1cc(N)ccc1NS(C)(=O)=O
melting point: 141 to 143 °C

— a melting point compilation (Tetko et al.)
